Measurements from US8173618B2, “Formulations for reducing neuronal degeneration” (University of Massachusetts, priority 2003, dated 2012).
Entries after “also recorded” stand apart in the source; their conditions may differ.

Tests used:
SH-SY-5Y cells [1] = assay: Homocysteine-induced apoptosis, meracyanine staining of externalized PS; format: cell-based, human
Experimental: FIG. 20 is a bar graph that depicts the results of experiments in which […] were treated with 250 μM homocysteine with or without 100 μM SAM, after which cultures were monitored for externalized PS via meracyanine staining as an indication of apoptosis. Values represent the mean (±standard error of the mean) in arbitrary densitometric units derived from densitometric analyses of 10-50 neurons from two cultures under each condition from two separate independent experiments.
(§1) Levels of externalized phosphatidylserine (PS) were used as a measure of apoptosis (Rimon et al., 1997, J. Neurosci. Res., 48:563-570). Briefly, cultures were subjected to treatments then rinsed with PBS and incubated with 10 μl/ml merocyanine (Upstate Biotech, Lake Placid, N.Y.), followed by examination under rhodamine optics (Ekinci et al, 1999, J. Biol. Chem., 274:30322-30327).
Homocysteine induces apoptosis in cultured cells. To investigate the effect of SAM on HC-induced apoptosis, 100 μM SAM and homocysteine were added to cultured SH-SY-5Y cells and apoptosis was monitored by meracyanine staining to detect the externalization of PS.

SH-SY-5Y cells [2] = assay: HPLC of homocysteine in SH-SY-5Y cell lysates and medium; format: cell-based, human; details: 25 μM DZA during folate deprivation
Experimental: (§2) Glutathione levels were quantified in homogenates of SH-SY-5Y cells. Cultures were rinsed twice with Tris-buffered saline (TBS), scraped from the plate in a small volume of TBS and homogenized on ice. Medium was also utilized for analysis of HCY along with cellular lysates, since HCY is normally exported from cells. Homogenates (100 μl) were reduced by mixing with 50 μl of 100 μM N-acetylcysteine or with 30 μl of 30 μM cystamine (as an internal standard) and 10 μl of tri-carboxyethylphosphine (100 mg/ml in 0.05 M HCl). Samples were vortexed, incubated at room temperature for 30 minutes, then centrifuged at 10,000×g for 10 minutes. 80 μl of the resulting supernatant were combined with 160 μl of 2 M boric acid/4 mM EDTA (pH 10.5), followed by 80 μl of 1.0 mg/ml SBDF [7-fluorobenzo-2-oxa-1,3-diazole-4-sulfonate] in boric acid/EDTA buffer). Samples were mixed, incubated for 60 minutes at 60° C., equilibrated to reach temperature, and 50 μl of the sample was then injected into a Hewlett Packard model 1090 HPLC, which is used with a 1046A fluorescence detector and a Hewlett Packard 4.6×60 mm high-speed analytical column packed with 3 μM ODs (C18) Hypersil silica. The mobile phase consisted of methanol/0.2 M acetate buffer pH 4.0 (2/98 by volume). Glutathione concentrations were then determined by comparison of peak area ratios of glutathione to the internal standard N-acetylcysteine in the sample compared to peak areas obtained for a glutathione standard curve. Samples were derived from 3-4 normal and 3-4 ApoE−/− mice for each dietary condition, from ≧2 independent experiments (total n≧6 for each diet for both experiments).
Medium was then decanted, cells were scraped from the plate and homogenized, and medium and cellular lysates, along with an aliquot of fresh medium that had not been in contact with cells, were subjected to HPLC analyses.

[3] = system: differentiated SH-SY-5Y cells; assay: Intracellular ROS by DCFD fluorescence in differentiated SH-SY-5Y cells; format: cell-based, human; details: for ROS: single agent, control cells and cells exposed to Abeta; for increase in ROS resulting from folate deprivation: simultaneously with folate deprivation; for increase in ROS: 20 μM Abeta25-35 two hours
Experimental: Cultured cells were used to test individual agents and formulations. In general, SH-SY-5Y human neuroblastoma cells were cultured in DMEM (Cellgro) containing 10% fetal bovine serum in 5% CO2.
For treatments with Abeta, differentiated cultures were transferred to medium without serum and treated for two hours with 20 μM Abeta25-35 (Sigma Chemical Co., St. Louis, Mo.). […] Louis, Mo.). In experiments calling for treatment of cell cultures with N-acetyl cysteine (NAC; NALC), cultures were treated with 10 mM NAC (Sigma Chemical Co., St. Louis, Mo.) after the culture was grown for two hours in serum-free medium.
(§3) Intracellular reactive oxygen species (ROS) were monitored as described in Ekinci et al., 1999 (J. Biol. Chem., 274:30322-30327). Briefly, cells were incubated for 30 minutes with dichloro-fluorescein diacetate (DCFD; acetoxymethyl ester; Molecular Probes, Inc., Eugene, Oreg.), which is used to detect intracellular peroxide levels. Incubation was followed by rinsing of cultures in serum-free medium and immediate capture of images using UV optics. Images were captured under epifluorescent and phase-contrast illumination using a DAGE CCL-72 cooled CCD camera via a Scion LG-3 frame grabber operated by NIH Image (see the Internet at rsb.info.nih.gov/nih-image). Images were then stored as PICT files on a Macintosh Power PC 7100AV for subsequent analysis. At least 100 cells in randomly-selected fields from duplicate cultures derived from multiple experiments were scored for fluorescent intensity using NIH Image analysis software. Representative background areas devoid of cells were similarly analyzed and subtracted from cell values to yield net densitometric values. All fields for each individual assay were illuminated, captured, and processed under identical settings. Corresponding phase-contrast images were obtained. Cell aggregates were excluded from the assays; only individual cells were quantified. Values were exported to Excel for statistical analyses using Student's t test.
For monitoring of intracellular peroxide concentrations as an index of ROS, cultures received 10 μl/ml DFCD (2′7′-dichlorofluorescein diacetate; Kodak) for 20 minutes. Cultures were then visualized under fluorescein UV optics (perikaryon; Ekinci and Shea, 1999, supra).

[4] = system: differentiated SH-SY-5Y cells; assay: ATP levels in Abeta-treated SH-SY-5Y cells; format: cell-based, human
Experimental: FIG. 11 is a bar graph showing the results of experiments examining apoptosis in which differentiated SH-SY-5Y cells cultured in the presence or absence of Abeta, with or without ALCAR for two hours, and assayed for ATP using spectrophotometric methods known in the art.
(§4) The effect of ALCAR on differentiated SH-SY-5Y cells treated with Abeta was examined. Cells were cultured in 20 μM Abeta in the presence and absence of ALCAR. Some cultures were pretreated with 50 μM ALCAR for 30 minutes. In these experiments, the ALCAR-containing medium was replaced with medium containing Abeta and no ALCAR then incubated for two hours before being assayed. Cultures were assayed for ROS, apoptosis, and ATP.

[5] = system: differentiated SH-SY-5Y cells; assay: Externalized phosphatidylserine (meracyanine fluorescence) as index of apoptosis in SH-SY-5Y cells; format: cell-based, human; details: co-treatment with 50 μM ALCAR, 20 μM Abeta
Experimental: as §1
The question of whether folate deficiency is associated with apoptosis was investigated. […] Overall detachment, a further sign of cell death, was evident by the seventh day in the serum-deprived cultures. The detachment phenomenon precluded longer experiments.
as §4

[6] = reported; cited from earlier work
SH-SY-5Y cells [7] = assay: HPLC analysis of glutathione and thiols in SH-SY-5Y cells; format: cell-based, human; details: NAC treatment in the absence of folate
Experimental: as §2
NAC directly scavenges ROS and also provide a source of intracellular cysteine for synthesis of glutathione during conditions of oxidative stress. […] Differentiated SH-SY-5Y cells with and without NAC treatment were subjected to HPLC along with 50 μM each of multiple thiol standards (“Standards”) as indicated in FIGS. 18A to 18C.

normal and ApoE−/− mice = assay: TBAR analysis of brain oxidative damage in mice on dietary regimens; format: in vivo; details: deficiency in vitamin E alone
Text: Damage resulting from the generation of intracellular reactive oxygen species can also be quantified using a TBAR assay (Ohkawa et al., Anal. Biochem., 95:351-358, 1979). This method is used to determine cellular lipid hydroperoxides in cultured cells by thiobarbituric acid reaction. Lipid hydroperoxides break down to malondialdehyde and other aldehydes. These react with thiobarbituric acid in a mildly acidic environment, which results in formation of a chromophore. The resulting chromophore is measured by light absorption or fluorescence techniques.
After one month, total brain tissue was harvested and subjected to TBAR analyses as described in Wittaker et al. (1996, supra).
Additional mice received the deficient diet supplemented with DZA (0.4 g/kg total diet weight), SAM (80 mg/kg diet weight) and NAC (1 g/kg diet weight). Total brain tissue was harvested and analyzed for TBARs.

cortical neurons = assay: Intracellular ROS by DCFD fluorescence in cortical neurons; format: cell-based, mice; details: folate-deficient medium two hours, 0.15 mg/ml vitamin E as alpha-tocopherol
Experimental: as §3, with “Ekinci” left out, “test. […]” for “test.”

[8] = no folate + 25 μM DZA, two hours

With `N[C@@H](CCS)C(=O)O` [Homocysteine, homocysteine] the “externalization of PS” value (SH-SY-5Y cells [1]; homocysteine, 2 and 24 hours) was “progressively induced externalization of PS”.

With `Nc1nccc2c1ncn2[C@@H]1O[C@H](CO)[C@@H](O)[C@H]1O` [DZA, 3-deazaadenosine] the “HCY formation and export” value (SH-SY-5Y cells [2]) was “prevented HCY formation and export to a level below that observed in cultures receiving folate”, the “attenuation of the increase in ROS from folate deprivation” value ([3]; 25 μM DZA during folate deprivation) was “approximately 50%” and the “attenuation of the increase in ROS from folate deprivation” value ([3]; 25 μM DZA simultaneously with folate deprivation) was “attenuated the increase in ROS by slightly more than half”. For the same molecule, the “ROS % increase vs. control” value [3, 8] was 16% and the “ROS Mean ± SEM” value [3, 8] was 8.8 ± 0.3.

For `CC(=O)O[C@H](CC(=O)[O-])C[N+](C)(C)C` [ALCAR, acetyl-L-carnitine], the “Abeta-induced reduction in ATP levels” value ([4]; co-treatment and prior treatment with 50 μM ALCAR) was “prevented this reduction in ATP levels”, the “effect of Abeta on ROS generation” value ([3]; co-treatment with 50 μM ALCAR, 20 μM Abeta) was “reduced the effect of Abeta on ROS generation” and the “Abeta neurotoxicity (ROS, apoptosis)” value ([3]; pretreatment with 50 μM ALCAR for 30 minutes, followed by its removal) was “effective at preventing Abeta neurotoxicity”. For the same molecule, the ROS ([3]; two hours) was “reduced ROS” and the “effect of Abeta on apoptosis” value [5] was “reduced”.

For `CC(=O)N[C@@H](CS)C(=O)O` [NAC, N-acetyl cysteine], the “entry into the CNS” value [6] is given as “reported to enter or have effects in the CNS”, the “intracellular cysteine (HPLC)” value (SH-SY-5Y cells [7]) is given as “marked increase” and the “intracellular glutathione (HPLC)” value (SH-SY-5Y cells [7]) is given as “marked increase”. The “increase in ROS resulting from folate deprivation” value ([3]; 1 mM NAC, two hours) was “prevented the increase in ROS”, the “increase in ROS resulting from folate deprivation” value ([3]; 10 mM NAC, two hours) was “prevented the increase in ROS” and the “ROS induced by Abeta” value ([3]; NAC (10 mM) applied 15 minutes after Abeta) was “quenched ROS”.

In the case of `C[S+](CC[C@H](N)C(=O)O)C[C@H]1O[C@@H](n2cnc3c(N)ncnc32)[C@H](O)[C@@H]1O` (stereo partly shown) [SAM, S-adenosyl methionine], the “entry into the CNS” value [6] is given as “reported to enter or have effects in the CNS”, the “increase in ROS generated by folate deprivation” value ([3]; 100 μM SAM, two hours) is given as “attenuation of the increase in ROS; also recorded: reduced ROS levels to a greater extent than did incubation of cells in the presence of folate” and the “homocysteine-induced PS externalization” value (SH-SY-5Y cells [1]; 100 μM SAM, 2 hours) is given as “prevented PS externalization”. The “reduction of homocysteine-induced PS externalization” value (SH-SY-5Y cells [1]; 100 μM SAM, 24 hours) was “approximately 50%”.

In the case of “Abeta: beta-amyloid fragment of the amyloid precursor protein; Abeta25-35 (Sigma) used at 20 μM (GSNKGAIIGLM; Amyloid-beta protein 42; UniProt P05067 696-706, looked up, fragment)”, the “cellular ATP” value ([4]; 20 μM Abeta) is reported as “reduced cellular ATP”, the “increase in ROS” value ([3]; folate-deprived cells) is reported as 144±10% and the “increase in ROS” value ([3]; in the presence of folate) is reported as 34±4%.

For `Cc1c(C)c2c(c(C)c1O)CC[C@@](C)(CCC[C@H](C)CCC[C@H](C)CCCC(C)C)O2` [vitamin E, alpha-tocopherol], the “ROS in brain (TBAR)” value (normal and ApoE−/− mice; ApoE−/− knockout mice) was “did increase ROS”, the “ROS in brain (TBAR)” value (normal and ApoE−/− mice; iron-fed normal mice) was “did not increase ROS” and the “ROS generation during folate deprivation” value (cortical neurons) was “not prevented”. For the same molecule, the “ROS induction by Abeta” value ([3]; additional experiments, vitamin E) was “prevented”, the ROS ([3]; two hours) was “reduced ROS” and the “ROS induced by Abeta” value ([3]; vitamin E (0.15 ng/mL) applied 15 minutes after Abeta) was “efficacy of vitamin E was markedly reduced; also recorded: but not vitamin E, quenched ROS”. For the same molecule, the “ROS induced by Abeta” value ([3]; vitamin E (0.15 ng/mL) provided simultaneously with Abeta, two hours) was “approximately identical to that of control cells”.
